Laboratory results published in patent publication US20250268873A1, “COMBINATION OF DUAL ATM AND DNA-PK INHIBITORS AND IMMUNOTHERAPEUTIC AGENTS FOR USE IN CANCER THERAPY” (XRAD THERAPEUTICS, INC., priority 2021, published 2025).

Key:
Format in all cases: in vivo
MC38 tumors = test: MC38 syngeneic murine tumor model; conditions: for Day 20 regression: p<0.05
Protocol: The murine colon adenocarcinoma cell line, MC38-NCI.TD1 (MC38), was cultured in Dulbecco's modified Eagle's medium (DMEM), 10% fetal bovine serum (FBS), 25 μg/ml gentamicin, 2 mM L-glutamine, 1% penicillin/streptomycin/L-glutamine at 37° C. in 5% CO2. Cells were dissociated in 0.25% trypsin/2.21 mM ethylenediaminetetraacetic acid in Hank's Balanced Salt Solution and brought to a density of 5×10^6 cells/200 μL in DMEM. Tumors were initiated by injection of the cell suspension subcutaneously in the right axilla of female C57BL/6 mice (Jackson Laboratory). All mice were sorted into 7 study groups (n=10) based on caliper estimation of tumor burden. Mice were distributed to ensure that the mean tumor burden for all groups was within 10% of the overall mean tumor burden for the study population (90 mm^3). Mice were monitored daily for clinical signs and weighed and measured three times weekly. The study endpoint was 30 days post staging or when tumor burden was >2000 mm^3.
The vehicle for compound 569 was 0.5% hydroxypropyl methyl cellulose (HPMC) and 0.1% Tween 80 dissolved in deionized water. Vehicle for compound 569 and compound 569 (12 mg/kg) were administered by oral gavage once daily starting the day of staging for two consecutive days (qd×2), in combination with focal radiation. Mice stratified to the radiation therapy groups received 5 Gy per day for two consecutive days (qd×2) 60 minutes following administration of the vehicle or compound 569. The mice were anesthetized with isoflurane during the radiation treatment, which was performed with the Xstrahl Life Sciences Small Animal Radiation Research Platform (Xstrahl, Inc.) Mice were irradiated at an average dose rate of 2.5 Gy/min.
The vehicle for isotype control (clone 2A3) anti-mouse PD-1 (anti-mPD-1; Bio X Cell) and anti-mPD-1 (Clone RMP1-14; Bio X Cell) was phosphate buffered saline (PBS). Isotype control anti-mPD-1 (10 mg/kg) and anti-mPD-1 (10 mg/kg) were administered intraperitonealy twice weekly for 2 weeks starting day 2 post staging. Treatment schedules for the various groups of animals are summarized below: • Group 1 mice received vehicle qd×2+10 mg/kg isotype control (q3d×2, 3 days off)×2; start 2 days post stage. • Group 2 mice received 10 mg/kg anti-mPD-1 (q3d×2, 3 days off)×2; start 2 days post stage. • Group 3 mice received focal irradiation 5 Gy qd×2+10 mg/kg isotype control (q3d×2, 3 days off)×2; start 2 days post stage. • Group 4 mice received focal irradiation 5 Gy qd×2+10 mg/kg anti-mPD-1 (q3d×2, 3 days off)×2; start 2 days post stage. • Group 5 mice received 12 mg/kg Compound 569 qd×2 (1 hr prior to focal irradiation)+5 Gy qd×2 • Group 6 mice received 12 mg/kg Compound 569 qd×2+10 mg/kg anti-mPD-1 (q3d×2, 3 days off)×2; start 2 days post stage. • Group 7 mice received 12 mg/kg Compound 569 qd×2 (1 hr prior to focal irradiation)+5 Gy qd×2+10 mg/kg anti-mPD-1 (q3d×2, 3 days off)×2; start 2 days post stage.
• ΔC and ΔT—Are individual mouse endpoints that are calculated for each mouse as follows:
[formula] • Where Tt and T0 are the tumor burdens of a treated mouse at time t or at the initiation of dosing, respectively. ΔC reflects similar calculations for the control mice. • Median ΔT/ΔC—Is a group endpoint. It is calculated for each day of treatment as:
[formula] • The results are presented as a %. When the median ΔT/ΔC is negative (the median treated tumor burden is regressing), the median ΔT/ΔC is not reported and the Median % Regression is reported instead. • % Regression—Is a group endpoint. It indicates the percentage reduction in the Median tumor volume from baseline. It is calculated as: […]
Day 20 post staging was chosen for ΔT/ΔC since it was the last day all animals were on study prior to euthanasia due to tumor burden. • Complete Regression (CR)—An animal is credited a complete regression if its tumor burden is reduced to an immeasurable volume at any point after the first treatment. […]

DNA-PK = DNA-PK (Homo sapiens (Human), UniProt P78527); test: Pharmacodynamic assay, pDNA-PK/DNA-PK in MDA-231 tumors
Protocol: (§1) FADU or MDA-MB-231 cells were harvested during log phase growth for in vivo implantation. The resuspended cells were washed three times in phosphate buffered saline (PBS) before preparing the working dilution in PBS. FADU cells were diluted to 1×10^7 cells/mL and MDA-MB-231 cells were diluted to 5×10^7 cells/mL. Each mouse was injected subcutaneously in the right flank with 100 μL of the cellular suspension. Tumor growth was monitored until the tumors reached a target volume of at least 100 mm^3, at which point mice were randomly stratified into four treatment groups.
(§2) Tumor studies were performed as follows. Mice bearing FADU or MDA-231 tumors were pre-dosed with vehicle alone or compound 569 alone at 3, 6, and 10 mg/kg. Tumors were then irradiated with 10 Gy 45 min after vehicle or compound 569 administration or left unirradiated (vehicle and compound 569 at 10 mg/kg). Tumors were harvested 1 h post radiation.
(§3) Tissue homogenates for pharmacodynamic analyses were collected and processed as follows. Tumor tissues from FADU or MDA-MB-231 tumors were flash frozen in liquid nitrogen and pulverized on dry ice using a tissue pulverizer. A portion of the tumor powder was transferred into a microtube, followed by addition of 500 μL of RIPA buffer [[…], pH 8.0, 150 mM NaCl, 0.1% SDS, 0.5% sodium deoxycholate, 1% IGEPAL® CA-630 (Sigma, I8896)]. To 10 ml of RIPA buffer, 2 tablets each of Protease inhibitor and Phosphatase inhibitor (Roche, #04693159001 & #04906837001), 200 μL of 0.1 M PMSF and 160 μL of Aprotinin, (Sigma, A6279) were added. The suspension was homogenized on ice with a pellet pestle motor (KONTES) and incubated on ice for 30 minutes. Cell lysates were centrifuged at 13,200 rpm for 15 min at 4° C. and supernatants were transferred to a new tube and analyzed for protein concentration with a BCA kit (Pierce, 23227), followed by immunoblotting.

ATM = ATM (Homo sapiens (Human), UniProt Q13315); test: Pharmacodynamic assay, pKAP1/KAP1 in FADU tumors; conditions: for pKAP1/KAP1: FADU tumors
Protocol: as §1, §2, §3

[1] = Group 5: compound 569 12 mg/kg qd×2 + radiation 5 Gy qd×2
[2] = Group 7: compound 569 + radiation + anti-mPD-1

ATM, sequence (Q13315 whole entry): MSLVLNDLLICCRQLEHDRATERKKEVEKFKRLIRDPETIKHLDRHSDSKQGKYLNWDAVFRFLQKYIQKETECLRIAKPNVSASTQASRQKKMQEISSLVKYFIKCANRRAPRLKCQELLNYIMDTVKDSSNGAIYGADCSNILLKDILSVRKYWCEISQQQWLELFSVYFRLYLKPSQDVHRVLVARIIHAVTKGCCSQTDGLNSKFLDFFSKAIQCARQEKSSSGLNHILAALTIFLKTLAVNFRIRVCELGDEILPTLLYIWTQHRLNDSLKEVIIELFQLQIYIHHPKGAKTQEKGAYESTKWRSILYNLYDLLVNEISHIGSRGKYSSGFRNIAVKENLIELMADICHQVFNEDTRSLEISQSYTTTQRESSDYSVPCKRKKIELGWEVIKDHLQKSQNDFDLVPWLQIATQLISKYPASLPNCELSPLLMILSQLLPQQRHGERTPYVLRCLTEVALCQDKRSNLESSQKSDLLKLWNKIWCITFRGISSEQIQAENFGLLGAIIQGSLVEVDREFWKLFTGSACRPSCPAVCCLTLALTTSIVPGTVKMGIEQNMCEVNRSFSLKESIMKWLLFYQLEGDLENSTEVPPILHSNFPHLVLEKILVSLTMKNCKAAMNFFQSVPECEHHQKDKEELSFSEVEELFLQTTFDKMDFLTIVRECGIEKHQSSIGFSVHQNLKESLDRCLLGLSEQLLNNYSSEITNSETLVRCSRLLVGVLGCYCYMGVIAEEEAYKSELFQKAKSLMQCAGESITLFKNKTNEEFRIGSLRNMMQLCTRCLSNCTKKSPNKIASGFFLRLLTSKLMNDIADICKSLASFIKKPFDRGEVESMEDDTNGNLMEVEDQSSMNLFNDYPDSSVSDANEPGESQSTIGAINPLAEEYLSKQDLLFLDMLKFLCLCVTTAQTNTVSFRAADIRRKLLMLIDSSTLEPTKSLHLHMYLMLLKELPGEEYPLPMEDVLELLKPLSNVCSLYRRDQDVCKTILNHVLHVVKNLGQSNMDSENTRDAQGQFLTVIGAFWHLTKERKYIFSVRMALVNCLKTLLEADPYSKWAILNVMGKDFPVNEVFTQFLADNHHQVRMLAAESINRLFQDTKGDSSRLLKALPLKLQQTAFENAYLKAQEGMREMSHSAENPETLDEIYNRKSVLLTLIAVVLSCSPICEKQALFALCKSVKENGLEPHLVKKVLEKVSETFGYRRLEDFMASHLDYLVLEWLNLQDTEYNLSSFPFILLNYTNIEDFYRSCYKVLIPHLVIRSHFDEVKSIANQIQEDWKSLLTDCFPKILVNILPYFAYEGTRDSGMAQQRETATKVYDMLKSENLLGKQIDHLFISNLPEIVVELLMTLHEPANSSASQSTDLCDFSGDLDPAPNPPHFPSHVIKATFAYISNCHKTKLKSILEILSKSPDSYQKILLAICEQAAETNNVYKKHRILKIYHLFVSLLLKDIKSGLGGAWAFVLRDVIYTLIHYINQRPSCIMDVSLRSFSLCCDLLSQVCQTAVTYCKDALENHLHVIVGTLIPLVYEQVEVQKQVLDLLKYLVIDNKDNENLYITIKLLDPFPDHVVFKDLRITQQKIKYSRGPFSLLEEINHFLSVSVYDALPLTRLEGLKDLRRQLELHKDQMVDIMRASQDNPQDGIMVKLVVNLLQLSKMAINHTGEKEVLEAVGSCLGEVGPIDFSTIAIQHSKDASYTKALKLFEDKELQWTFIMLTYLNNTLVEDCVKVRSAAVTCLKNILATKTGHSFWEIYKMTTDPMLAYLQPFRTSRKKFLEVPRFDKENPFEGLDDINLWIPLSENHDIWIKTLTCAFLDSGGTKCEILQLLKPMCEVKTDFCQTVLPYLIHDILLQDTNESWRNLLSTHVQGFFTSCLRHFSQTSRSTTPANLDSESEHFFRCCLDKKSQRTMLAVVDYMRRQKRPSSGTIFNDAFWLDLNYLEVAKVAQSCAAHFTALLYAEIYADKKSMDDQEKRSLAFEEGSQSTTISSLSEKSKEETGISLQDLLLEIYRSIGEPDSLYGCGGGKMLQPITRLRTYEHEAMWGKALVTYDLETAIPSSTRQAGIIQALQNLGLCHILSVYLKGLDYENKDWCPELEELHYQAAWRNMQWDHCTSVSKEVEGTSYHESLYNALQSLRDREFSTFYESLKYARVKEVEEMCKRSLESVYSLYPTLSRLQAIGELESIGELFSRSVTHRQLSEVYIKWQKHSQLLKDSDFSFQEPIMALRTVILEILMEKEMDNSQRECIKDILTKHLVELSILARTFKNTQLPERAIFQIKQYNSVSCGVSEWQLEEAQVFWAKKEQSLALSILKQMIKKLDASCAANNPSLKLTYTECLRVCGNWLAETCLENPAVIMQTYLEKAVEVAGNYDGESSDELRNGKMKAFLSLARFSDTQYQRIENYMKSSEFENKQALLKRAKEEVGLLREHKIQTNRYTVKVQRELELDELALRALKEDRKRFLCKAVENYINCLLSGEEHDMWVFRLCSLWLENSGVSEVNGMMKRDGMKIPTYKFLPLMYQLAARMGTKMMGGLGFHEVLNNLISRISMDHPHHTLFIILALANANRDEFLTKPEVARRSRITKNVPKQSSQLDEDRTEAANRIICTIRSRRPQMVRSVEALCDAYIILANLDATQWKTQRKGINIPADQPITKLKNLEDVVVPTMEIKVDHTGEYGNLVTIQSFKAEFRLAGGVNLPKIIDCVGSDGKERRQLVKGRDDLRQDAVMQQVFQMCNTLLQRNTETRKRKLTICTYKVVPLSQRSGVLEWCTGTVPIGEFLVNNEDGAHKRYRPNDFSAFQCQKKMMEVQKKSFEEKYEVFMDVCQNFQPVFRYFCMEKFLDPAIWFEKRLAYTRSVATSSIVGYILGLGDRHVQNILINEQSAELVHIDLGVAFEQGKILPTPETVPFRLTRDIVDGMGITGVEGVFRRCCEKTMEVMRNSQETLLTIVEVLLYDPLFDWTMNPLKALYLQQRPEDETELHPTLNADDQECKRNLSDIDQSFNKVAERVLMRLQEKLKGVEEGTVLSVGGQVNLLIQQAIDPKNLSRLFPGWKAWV

**Q.** `CC(C)NCCOc1ncc(-c2cc3c4c(cnc3cc2F)N(C)C(=O)C42CCC2)cc1NS(C)(=O)=O` [Compound 569, N-(5-(7′-Fluoro-3′-methyl-2′-oxo-2′,3′-dihydrospiro[cyclobutane-1,1′-pyrrolo[2,3-c]quinolin]-8′-yl)-2-(2-(isopropylamino)ethoxy)pyridin-3-yl)methanesulfonamide] was tested. Which “incidence of complete regressions (CR)” value (MC38 tumors; [1]) did it give?
**A.** 50%

**Q.** What about the “incidence of tumor free survivors (TFS)” value (MC38 tumors; [1]) of the same compound?
**A.** 30%

**Q.** And the “Day 20 regression” value (MC38 tumors; [1])?
**A.** 22%

**Q.** And the “Day 20 median ΔT/ΔC” value (MC38 tumors; Group 6: compound 569 12 mg/kg po qd×2 + anti-mPD-1 10 mg/kg ip, p>0.05)?
**A.** 64%

**Q.** What about the incidence of death (MC38 tumors; Group 6: compound 569 12 mg/kg qd×2 + anti-mPD-1 10 mg/kg, 1 death, n=10) of the same compound?
**A.** 10%

**Q.** And the “Day 20 regression” value (MC38 tumors; Group 7: compound 569 12 mg/kg qd×2 + radiation 5 Gy qd×2 + anti-mPD-1 10 mg/kg)?
**A.** 99%

**Q.** What about the “incidence of complete regressions (CR)” value (MC38 tumors; [2]) of the same compound?
**A.** 90%

**Q.** And the “incidence of tumor free survivors (TFS)” value (MC38 tumors; [2])?
**A.** 90%

**Q.** And the pDNA-PK/DNA-PK (DNA-PK; 10 Gy, 3 mg/kg oral)?
**A.** 0.889

**Q.** And the pDNA-PK/DNA-PK (DNA-PK; 10 Gy, 6 mg/kg oral)?
**A.** 0.670

**Q.** And the pDNA-PK/DNA-PK (DNA-PK; 10 Gy, 10 mg/kg oral)?
**A.** 0.454

**Q.** What about the pDNA-PK/DNA-PK (DNA-PK; no radiation, 10 mg/kg oral) of the same compound?
**A.** 0.223

**Q.** And the inhibition at 10 mg/kg (ATM; 10 mg/kg, 10 Gy, FADU and MDA231 tumors (FIGS. 4 and 5), read-out: inhibition of tumor levels of radiation-induced phosphorylation of KAP1)?
**A.** > 80%

**Q.** What about the pKAP1/KAP1 (ATM; 10 Gy, 3 mg/kg oral) of the same compound?
**A.** 0.0903

**Q.** What about the pKAP1/KAP1 (ATM; 10 Gy, 6 mg/kg oral) of the same compound?
**A.** 0.0982

**Q.** And the pKAP1/KAP1 (ATM; 10 Gy, 10 mg/kg oral)?
**A.** 0.156

**Q.** What about the pKAP1/KAP1 (ATM; no radiation, 10 mg/kg oral) of the same compound?
**A.** 0.00595
